According to publication PMC9468336, “The choanoflagellate pore-forming lectin SaroL-1 punches holes in cancer cells by targeting the tumor-related glycosphingolipid Gb3” (Communications Biology, 2022):
Read-outs that look alike come from different tables or passages of the source.

How the values were obtained:
[1] = biological target: T1, hemolytic activity of SaroL-1 on rabbit erythrocytes (Salpingoeca rosetta, UniProt F2UID9); test: Inhibition of hemolytic activity (IHA) of SaroL-1 by carbohydrates; type: cell-based; settings: for inhibition: SaroL-1 217 nM, read-out: Mean % inhibition of hemolysis
T1 sequence (F2UID9 1-329): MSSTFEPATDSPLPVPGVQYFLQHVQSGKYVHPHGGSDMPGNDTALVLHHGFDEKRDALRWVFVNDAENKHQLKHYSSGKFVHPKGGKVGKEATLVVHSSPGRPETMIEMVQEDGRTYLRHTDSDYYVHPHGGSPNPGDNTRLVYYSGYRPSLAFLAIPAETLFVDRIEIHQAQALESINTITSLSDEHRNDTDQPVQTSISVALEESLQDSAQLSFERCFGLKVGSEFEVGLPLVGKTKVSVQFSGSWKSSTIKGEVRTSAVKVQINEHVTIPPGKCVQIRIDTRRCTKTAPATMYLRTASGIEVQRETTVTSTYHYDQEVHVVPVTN
Method: (§1) Both HA and IHA assays were performed in U-shaped 96-well microtiter plates. In both cases, a control negative experiment was performed with Buffer A added to erythrocyte solution (2% final concentration), and the resulting value was subtracted from all data.
(§2) IHA was performed in U-shaped 96-well microtiter plates. […] 4% rabbit erythrocytes were added to the mixture in a 1:1 ratio and incubated for 1–2 h at 37 °C. The samples were centrifuged, 2600 × g for 15 min at RT, and the absorbance of the supernatant was measured at 540 nm by a Tecan reader.

SaroL-1 [2] = biological target: T2, SaroL-1 (Salpingoeca rosetta, UniProt F2UID9); test: Isothermal titration calorimetry (MicroCal iTC200) at 25 °C in 20 mM Tris/HCl pH 7.5, 100 mM NaCl, ligand titrated into SaroL-1, one-site model with stoichiometry N fixed to 3.; type: binding
T2 construct: gene PTSG_08235; monomeric in solution
Method: Isothermal Titration Calorimetry (ITC)
ITC experiments were performed with MicroCaliTC200 (Malvern Panalytical). Experiments were carried out at 25 °C ± 0.1 °C. SaroL-1 and ligands samples were prepared in Buffer A. The ITC cell contained SaroL-1 in a concentration range from 0.05 mM to 0.16 mM. The syringe contained the ligand solutions in a concentration from 10 to 50 mM. 2 μL of ligands solutions were injected into the sample cell at intervals of 120 s while stirring at 750 rpm. Integrated heat effects were analysed by nonlinear regression using one site binding model (MicroCal PEAQ-ITC Analysis software). The experimental data were fitted to a theoretical curve, which gave the dissociation constant (Kd) and the enthalpy of binding (∆H).

SaroL-1 [3] = biological target: T2, SaroL-1; test: Inhibition of SaroL-1 (217 nM) induced hemolysis of rabbit erythrocytes after 1 h pre-incubation of lectin with sugar at RT, then 1-2 h at 37 °C, absorbance of supernatant at 540 nm.; type: cell-based; settings: n = 2
Method: Hemolytic assay (HA) and inhibition of hemolytic activity (IHA)
as §1, §2

SaroL-1 [4] = test: Isothermal titration calorimetry of galactosyl-ligands with SaroL-1; type: binding, Salpingoeca rosetta; settings: ITC

Row | SMILES | inhibition ([1]; sugar 0.003 mM) [%] | inhibition ([1]; sugar 0.006 mM) [%] | inhibition ([1]; sugar 0.0125 mM) [%] | inhibition ([1]; sugar 0.025 mM) [%] | inhibition ([1]; sugar 0.05 mM) [%] | inhibition ([1]; sugar 0.1 mM) [%] | inhibition ([1]; sugar 0.2 mM) [%] | inhibition ([1]; sugar 0.4 mM) [%] | inhibition ([1]; sugar 0.8 mM) [%] | inhibition ([1]; sugar 1.6 mM) [%] | inhibition ([1]; sugar 3.125 mM) [%] | inhibition ([1]; sugar 6.25 mM) [%] | inhibition ([1]; sugar 12.5 mM) [%] | inhibition ([1]; sugar 25 mM) [%] | inhibition ([1]; sugar 50 mM) [%] | Kd (SaroL-1 [2]) [µM] | IC50 (SaroL-1 [3]) [µM] | binding to SaroL-1 (in words) (SaroL-1 [4]) | IC50 ([1]; SaroL-1 217 nM pre-incubated with carbohydrate, read-out: IC50 of inhibition of hemolysis) [µM] | inhibition of hemolysis (in words) ([1]; 10 mM carbohydrate)
1 | CC(=O)N[C@H]1C(O)O[C@H](CO)[C@H](O)[C@@H]1O (stereo partly shown) [GalNAc, N-acetylgalactosamine] | 3.76 | 7.37 | 8.89 | 4 | 2.33 | 6.61 | 6.57 | 9.48 | 14.5 | 27.3 | 42.5 | 64 | 83.1 | 98.8 | 100 | 2760 | 4900 |  |  | 
2 | CO[C@H]1O[C@H](CO)[C@H](O)[C@H](O)[C@H]1O [GalαOMe, α-methyl galactoside] |  |  |  |  |  |  |  |  |  |  |  |  |  |  |  | 2170 |  |  |  | 
3 | OC[C@H]1O[C@@H](O[C@H]2[C@H](O)[C@@H](O)[C@H](O)O[C@@H]2CO)[C@H](O)[C@@H](O)[C@H]1O [Lactose, lactose] |  |  |  |  |  |  |  |  |  |  |  |  |  |  |  |  |  | very weak binding | 11900 | 
4 | OC[C@H]1O[C@H](OCC2O[C@@H](O)[C@H](O)[C@@H](O)[C@@H]2O)[C@H](O)[C@@H](O)[C@H]1O (stereo partly shown) [melibiose] | 0.665 | 2.27 | 3.73 | 7.43 | 7.01 | 9.7 | 15.2 | 22.7 | 36.1 | 54.5 | 76.3 | 91.8 | 100 | 100 | 100 |  |  |  |  | complete inhibition
5 | OC[C@H]1O[C@H](O[C@H]2[C@@H](O)[C@@H](CO)OC(O)[C@@H]2O)[C@H](O)[C@@H](O)[C@H]1O (stereo partly drawn) [αGal1-3Gal, α-D-galactopyranosyl-(1-3)-D-galactose] |  |  |  |  |  |  |  |  |  |  |  |  |  |  |  | 1380 |  |  |  | 
